Experimental data: patent US20030022923A1, “Methods for treatment of sickle cell anemia” (Medinox, Inc., priority 2001, published 2003)

Legend:
[1] = Pharmacokinetic study of vanillin-thiazolidine adduct and vanillin by oral administration in rats (vanillin in blood by HPLC); format: in vivo, Sprague-Dawley rats; details: oral gavage, blood concentration-time curves 2-180 min
Method: Sixteen Sprague-Dawley rats (male, 200-300 g) were catheterized at the carotid at least 12 hours before drug administration and the catheter was flushed with heparin solution to prevent line clotting. […] Blood samples were collected by unhooking the flush syringe and letting the blood flow freely into centrifuge tubes at predetermined time points, i.e., 2, 5, 10, 15, 30, 45, 60, 90, 120 and 180 minutes after gavage. To each 100 μl of blood sample was added 400 μl of perchloric acid in a centrifuge tube. After vigorously vortexing, the samples in centrifuge tubes were spun down at 13,000 rpm for 10 min.
A striking difference was noted between the pharmacokinetic profiles of vanillin-thiazolidine and of unmodified vanillin.
Noncompartmental pharmacokinetic analysis was then carried out using WinNolin (Pharsight Inc., Mountain View, Calif.) and the results are summarized in Table 1, below. […] The maximum concentration at 2 minutes (Cmax) was also approximately 4 times higher in the former compared to the latter.

[2] = orally administered; extensive metabolism in the intestines and liver; cited from earlier work
[3] = cited from earlier work
hemoglobin S = hemoglobin S (Homo sapiens, UniProt P68871+P69905, E7V); details: in solution and in intact red cells; cited from earlier work
[4] = Hydrophobicity compared with vanillin; format: physicochemical
Source text: It is well known that vanillin can be extensively metabolized by intestinal bacteria and the liver (Strand and Scheline, supra). It is likely that the vanillin-derived thiazolidine is not easily metabolized by the same routes.

| Compound | vanillin levels in the blood and half-life (FIG. 1 profile, in words) [1] | oral bioavailability [2] | body and organ weights, hemotology, histopathology, test vs control rats ([3]; 1.0% of the diet for 16 weeks, 2.0% and 5.0% for 1 year, or 0.5%, 1.0% and 2.0% for 2 years) | toxicity on extended feeding ([3]; rats, vanillin at high levels for extensive periods) | oxygen affinity of hemoglobin S (hemoglobin S) | hydrophobicity relative to vanillin [4] |
| --- | --- | --- | --- | --- | --- | --- |
| COc1cc(C=O)ccc1O [Vanillin, 4-hydroxy-3-methoxybenzaldehyde] | low with a short half-life | poorly bioavailable | no significant differences | No toxicity was observed | marked increase in oxygen affinity |  |
| CCOC(=O)C1CSC(c2ccc(O)c(OC)c2)N1 (stereo not shown) [Vanillin-Thiazolidine Adduct, Ethyl 2-(4-hydroxy-3-methoxyphenyl)-1,3-thiazolidine-4-carboxylate] | higher, with a much longer half-life |  |  |  |  | more hydrophobic than vanillin |
